According to US7494996B2 (priority 2000, dated 2009):

Tests used:
Pyricularia oryzae = experiment: whole plant or invertebrate; assay type: in vivo; settings: 100 is total disease control, 0 is no disease control; for Rice Blast (RB) protectant fungicide data, percent control: 300 g/ha, greenhouse; for pest or weed control at 300 g/ha: Pyricularia oryzae, topical, 144 h, read-out: Rice Blast (RB) protectant fungicide data, percent control, protectant, 300 g/ha, greenhouse
Sphaerotheca fuliginea = experiment: Cucumber Powdery Mildew (CPM) protectant test in the greenhouse; assay type: in vivo; settings: 100 is total disease control, 0 is no disease control; for Cucumber Powdery Mildew (CPM) protectant fungicide data, percent control: 300 g/ha; for pest or weed control at 300 g/ha: Podosphaera fuliginea, topical, 168 h, read-out: Cucumber Powdery Mildew (CPM) protectant fungicide data, percent control
Method: Plants used in the fungicide testing program were grown in 2-¼-inch (5.7-cm). square pots containing RediEarth propagation substrate. The plants were raised under greenhouse conditions. The rice plants were 12-days-old and cucumbers were 13-days-old at the time of spraying with chemical treatments.
The sample of the experimental chemical was weighed and dissolved in an acetone-methanol-water solution (A/M/W at 1:1:2 ratio by volume).
After sprayer calibration, the test solutions were poured into the fungicide sprayer. The fungicide sprayer contains three spray nozzles, located approximately 10 cm above and to the sides of the plants. The spray produced by the nozzles results in uniform coverage of both the upper and lower parts of the plant leaves. After spraying, the treated plants were placed in a drying chamber for 4 hours, prior to sorting.
Cucumber Powdery Mildew (CPM), caused by the fungus Sphaerotheca fuliginea, was maintained on large cucumber plants. For inoculum preparation, five to eight leaves depending on size, completely covered with powdery mildew spores, were collected. The leaves were placed in a glass jar and covered with 500 ml of water, containing 5 drops of Tween-80. The material was filtered through two layers of cheesecloth to remove leaf fragments. The spore count was adjusted to 2×10^5 spores per ml.
Cucumber plants, cv. “Bush Champion,” were used for this test. The plants were thinned to one per pot after the cotyledons were fully developed. Two days before the test, the small leaves and meristem region were removed, leaving only the cotyledons and one large true leaf.
The protectant tests required that the cucumber plants be inoculated 1 day after spraying with the chemical treatment. The plants were inoculated with a hand-held spray bottle with the suspension of fungal spores. The leaves were lightly misted on the upper surface from two different spray directions. Disease development occurred in the greenhouse.
After seven days, the plants were evaluated for percent of disease control. The results are reported as percent control; 100 is total disease control, 0 is no disease control.

Row | Compound | Rice Blast (RB) protectant fungicide data, percent control (Pyricularia oryzae) [percent control] | Cucumber Powdery Mildew (CPM) protectant fungicide data, percent control (Sphaerotheca fuliginea) [percent control] | pest or weed control at 300 g/ha (Pyricularia oryzae) [%] | pest or weed control at 300 g/ha (Sphaerotheca fuliginea) [%]
1 | CCOC(=O)CN1N=C(c2cccc(C)c2)NCC1=O [Compound 165] | 80 | 0 | – | –
2 | CCCCN1N=C(C)NC(c2cccc(C)c2)C1=O (stereo not drawn) [Compound 77] | 0 | 50 | – | –
3 | O=C1CNC(c2cc(Cl)cc(Cl)c2)=NN1 [Compound 64] | 50 | 0 | – | –
4 | Cn1nc(-c2ccc(Oc3ccccc3)cc2)ncc1=O [Compound 282] | 75 | 75 | – | –
5 | CCCCN1N=C(c2ccc(OCC)cc2)NCC1=O [Compound 116] | 85 | 0 | – | –
6 | N#CCn1nc(-c2ccc(Cl)cc2)ncc1=O [Compound 264] | 50 | 0 | – | –
7 | CCCCn1nc(-c2cc(C(F)(F)F)cc(C(F)(F)F)c2)ncc1=O [Compound 288] | 0 | 75 | – | –
8 | CCOC(=O)CN1N=C(c2ccc(Cl)c(Cl)c2)NCC1=O [Compound 102] | 85 | 50 | – | –
9 | O=c1cnc(-c2ccccc2Cl)nn1CC(F)(F)F [Compound 267] | 80 | 85 | – | –
10 | O=C1CNC(c2cccc(C(F)(F)F)c2)=NN1CC(F)(F)F [Compound 153] | 100 | 0 | – | –
11 | CCCOc1ccc(-c2ncc(=O)n(CC(F)(F)F)n2)cc1 [Compound 281] | 85 | 95 | – | –
12 | CCCCn1nc(-c2ccc(Cl)cc2)ncc1=O [Compound 258] | 100 | 75 | – | –
13 | CCCCN1N=C(c2ccc(Cl)c(Cl)c2)NCC1=S [Compound 17, 1-Butyl-3-(3,4-dichlorophenyl)-4,5-dihydro-1,2,4-triazin-6-thione] | – | – | 99 | 80
14 | CCCCN1N=C(c2ccc(Cl)c(Cl)c2)N(CC2CCC2)CC1=O [Compound 201] | 85 | 0 | – | –
15 | COc1ccc(C2=NN(CC(F)(F)F)C(=O)CN2)cc1 [Compound 35] | 50 | 50 | – | –
16 | CSc1ccc(C2=NN(c3cccc(C)c3)C(=O)CN2)cc1 [Compound 187] | 80 | 0 | – | –
17 | CCCCn1nc(-c2ccccc2OC)ncc1=O [Compound 283] | 90 | 50 | – | –
18 | CN1N=C(c2ccc(Oc3ccccc3)cc2)NCC1=O [Compound 156] | 85 | 0 | – | –
19 | CCC#CCn1nc(-c2ccc(Cl)cc2)nc(C)c1=O [Compound 237] | 0 | 95 | – | –
20 | O=C1CNC(c2ccccc2F)=NN1CC(F)(F)F [Compound 96] | 50 | 75 | – | –
21 | O=C1CNC(C2CCCCC2)=NN1CC(F)(F)F [Compound 45] | 75 | 0 | – | –

Row | Compound | Rice Blast (RB) protectant fungicide data, percent control (Pyricularia oryzae) [percent control] | Cucumber Powdery Mildew (CPM) protectant fungicide data, percent control (Sphaerotheca fuliginea) [percent control] | pest or weed control at 300 g/ha (Pyricularia oryzae) [%] | pest or weed control at 300 g/ha (Sphaerotheca fuliginea) [%]
22 | CCCCN1N=C(c2cc(Cl)cc(Cl)c2)N(C(=O)OCOC(C)=O)CC1=O [Compound 118] | 90 | 0 | – | –
23 | CCCCN1N=C(c2ccc(Oc3ccccc3)cc2)NCC1=O [Compound 3, 1-Butyl-3-(4-phenoxyphenyl)-4,5-dihydro-1,2,4-triazin-6-one] | – | – | 80 | 0
24 | CCCCN1N=C(c2cc(Cl)cc(Cl)c2)N(C(=O)OC)CC1=O [Compound 130] | 50 | 0 | – | –
25 | Cc1cccc(-n2nc(-c3cccc(Cl)c3)ncc2=O)c1 [Compound 278] | 85 | 0 | – | –
26 | Cc1cc(C)cc(C2=NN(CC(F)(F)F)C(=O)CN2)c1 [Compound 296] | 98 | 75 | – | –
27 | CCCCn1nc(-c2ccc(F)c(Br)c2)ncc1=O [Compound 289] | 100 | 50 | – | –
28 | CCCCN1N=C(c2cccc(F)c2)NCC1=O [Compound 221] | 85 | 80 | – | –
29 | CCCCN1N=C(c2cccc(OC)c2)NCC1=O [Compound 114] | 75 | 0 | – | –
30 | CCCCC1=NN(c2ccc(Cl)cc2)C(=O)CN1 [Compound 204] | 75 | 85 | – | –
31 | COC(=O)SN1CC(=O)N(CC(F)(F)F)N=C1c1cc(Cl)cc(Cl)c1 [Compound 292] | 99 | 75 | – | –
32 | C=C(Cl)CN1N=C(c2cc(Cl)cc(Cl)c2)NCC1=O [Compound 65] | 95 | 50 | – | –
33 | CCCCCN1N=C(c2ccc(Cl)cc2)NCC1=O [Compound 54] | 99 | 85 | – | –
34 | CCOc1ccc(-c2ncc(=O)n(-c3ccc(Cl)cc3)n2)cc1 [Compound 274] | 85 | 0 | – | –
35 | O=C1CNC(c2ccc(Cl)c(Cl)c2)=NN1 [Compound 174] | 75 | 0 | – | –
36 | CCCOc1ccc(C2=NN(CC(F)(F)F)C(=O)CN2)cc1 [Compound 145] | 90 | 0 | – | –
37 | CCOC(=O)Cn1nc(-c2cccc(C)c2)ncc1=O [Compound 275] | 85 | 0 | – | –
38 | CCCCN1N=C(C)NC(c2ccc(C(C)(C)C)cc2)C1=O (stereo not drawn) [Compound 95] | 25 | 75 | – | –
39 | O=c1cnc(-c2ccccc2F)nn1CC(F)(F)F [Compound 263] | 80 | 85 | – | –
40 | O=C1CNC(c2cc(Cl)cc(Cl)c2)=NN1CC=CCl (mixture of isomers) [Compound 67] | 99 | 80 | – | –
41 | CCCCN1N=C(c2sc(C)nc2C(F)(F)F)NCC1=O [Compound 68] | 0 | 50 | – | –
42 | Cc1ccccc1-c1nn(CC(F)(F)F)c(=O)c(=O)[nH]1 [Compound 291] | – | – | 80 | 0
